The test system of experiment [1] is primary cortical neurons. Nature of the experiment: Neurite outgrowth assay of primary cortical neurons (image-based HCS) against paclitaxel-induced neurotoxicity. In kind it is cell-based, mouse. The settings on record: for activity at 0.01 µM / activity at 1 µM: Mus musculus, Primary cortical neuron; for activity at 0.01 µM: read-out: C: Neurite outgrowth (% of control) of test compound (10 nM) + paclitaxel (1 μM); for activity at 1 µM: read-out: D: Neurite outgrowth (% of control) of test compound (1000 nM) + paclitaxel (1 μM); for protective effect in the neurite outgrowth assay (in words): test compound 10 and 1000 nM prior to paclitaxel 1 μM, Figure 1A. The source says: (§1) Herein, we wish to report that an in vitro neurite outgrowth assay of cortical neurons integrated with an image-based high-content screening (HCS) platform is used to evaluate a commercially available library of 78 minoxidil-related derivatives,[22] leading to the identification of a series of analogues able to prevent or alleviate paclitaxel-induced neurotoxicity. The project began with screening compounds with the primary culture of cortical neurons from neonatal mice. More specifically, cerebral cortex neurons cultured from P0 C57BL/6J mouse pups were incubated with a test compound (10 and 1000 nM) prior to paclitaxel (1 μM) treatment. Subsequently, both neurite outgrowth and synaptogenesis were measured to evaluate the test compounds’ neuroprotective capacity. […] This unique feature is preserved for the core-structure screening of our in-house library in the following subject. Moreover, the substituent at the C4 position appears flexible in terms of structural diversity. Collectively, CSV0A024807, the only one displaying the best neuroprotective potency on both neurite outgrowth and synaptogenesis assays, was thus elected as a potential hit compound for further development.
(§2) Primary cortical or DRG cells were fixed with 4% paraformaldehyde for 15 min following compound and paclitaxel treatment. After washing with PBS, the fixed cells were permeabilized with PBS containing 0.05% Triton X-100 for 20 min and then blocked with commercial blocking buffer (#GTX30963; GeneTex, USA) at room temperature for 1 h. Subsequently, the cortical cells were stained for the extending processes and synaptic puncta by using anti-MAP2 (#MBS502140, 1:500; Mybiosource, USA) and anti-synaptophysin (#ab32127, 1:500; Abcam, UK) overnight. DRG cells were stained for the neurite and neuron nucleus by using anti-β III tubulin (#D71G9, 1:600; Cell Signaling, USA) and anti-NeuN monoclonal antibody (#MAB377, 1:400; Millipore, USA) overnight. On the second day, the samples were washed for 30 min with wash buffer and incubated with secondary antibodies (Alexa-488, 647 1:600; Thermo Fisher, USA) and 4 μg/mL Hoechst 33258 (#94403-1ML, 1:100; Merck, USA) at room temperature for 1 h. In the initial experiments of screening the potential neuroprotective compound for CIPN, ImageXpress^Micro (IXM) high-content imaging system (Molecular Devices, USA) driven by MetaXpress software was used. Images of treated cells were automatically acquired by using a 10× objective. Twenty-one images per well were taken in each of three channels (DAPI, FITC, and Cy5) to create a whole view of the entire neural network. The integrity of the neural network was evaluated using TIF images by importing them into MetaXpress software for analysis using the module for multiparameter, such as Neurite Outgrowth, Cell Scoring, and Transfluor. Furthermore, the score of synaptogenesis was analyzed in AcuityXpress software (Molecular Devices, USA).

Experiment [2] concerns primary cortical neurons. Nature of the experiment: Synaptogenesis assay of primary cortical neurons (image-based HCS) against paclitaxel-induced neurotoxicity. In kind it is cell-based, mouse. The settings on record: for activity at 0.01 µM / activity at 1 µM: Mus musculus, Primary cortical neuron; for activity at 0.01 µM: read-out: A: Synaptogenesis (% of control) of test compound (10 nM) + paclitaxel (1 μM); for activity at 1 µM: read-out: B: Synaptogenesis (% of control) of test compound (1000 nM) + paclitaxel (1 μM); for attenuation of synaptogenesis inhibited by paclitaxel (in words): test compound 10 and 1000 nM prior to paclitaxel 1 μM, Figure 1A.
Source text: as §1, §2

[3] abbreviates: test compound 10 nM + paclitaxel 1 μM, mean ± SE.
The mark [4] stands for this setting: test compound 1000 nM + paclitaxel 1 μM, mean ± SE.

Take `CN(C)c1ccc(/C=N/Nc2cc(N3CCCCC3)nc(N3CCCCC3)n2)cc1` [CSV0A041618]: the figures for the activity at 0.01 µM in experiment [1] (setting [3]) and in experiment [2] (setting [3]) were 55 ± 2% and 83 ± 2%, respectively. In addition, the activity at 1 µM stood at 55 ± 2% in experiment [1] (setting [4]) and 64 ± 7% in experiment [2] (setting [4]). The “attenuation of synaptogenesis inhibited by paclitaxel (in words)” value (“attenuation of synaptogenesis inhibited” below) in experiment [2] is on record as “significantly attenuated”.
Turning to `CN(C)c1cc(N/N=C/c2cc3c(c([N+](=O)[O-])c2)OCO3)nc(N(C)C)n1` [CSV0A047583], the activity at 0.01 µM was 63 ± 3% in experiment [1] (setting [3]) and 66 ± 4% in experiment [2] (setting [3]). For the same compound, the activity at 1 µM in experiment [1] (setting [4]) was found to be 61 ± 3%; in experiment [2] (setting [4]) it was 69 ± 5%.
Regarding `O=C(NNc1cc(N2CCOCC2)nc(N2CCOCC2)n1)c1ccccc1` [CSV0A051549], the activity at 0.01 µM in experiment [1] (setting [3]) was 71 ± 1%; in experiment [2] (setting [3]), 86 ± 6%. Besides, the activity at 1 µM was determined as 68 ± 1% in experiment [1] (setting [4]) and 77 ± 7% in experiment [2] (setting [4]). Besides, in experiment [1], the “protective effect in the neurite outgrowth assay (in words)” value is given as “significant protective effect”.
For `CCN(CC)c1cc(NNC(=O)c2ccccc2OC)nc(N(CC)CC)n1` [CSV0A008237], the activity at 0.01 µM in experiment [1] (setting [3]) was 56 ± 1%; in experiment [2] (setting [3]), 45 ± 4%. Further, the activity at 1 µM in experiment [1] (setting [4]) is 50 ± 9%; in experiment [2] (setting [4]) it was 45 ± 8%.
As to `O=C(CCc1ccccc1)NNc1cc(N2CCCCC2)nc(N2CCCCC2)n1` [CSV0A062711], in experiment [1], the activity at 0.01 µM was determined as 80 ± 11% and the activity at 1 µM was 79 ± 6%. In experiment [2], the activity at 0.01 µM was 36 ± 0.5% and the activity at 1 µM came out at 28 ± 3%.
As to `C(=N\Nc1cc(N2CCOCC2)nc(N2CCOCC2)n1)/c1ccncc1` [CSV0A024809], the values for the activity at 0.01 µM in experiment [1] (setting [3]) and in experiment [2] (setting [3]) were 77 ± 2% and 38 ± 3%, respectively. Also, the figures for the activity at 1 µM in experiment [1] (setting [4]) and in experiment [2] (setting [4]) were 82 ± 3% and 27 ± 0.5%, respectively.
`Oc1ccc(/C=N/Nc2cc(N3CCOCC3)nc(N3CCOCC3)n2)cc1` [CSV0A013029]: the figures for the activity at 0.01 µM in experiment [1] (setting [3]) and in experiment [2] (setting [3]) were 58 ± 2% and 72 ± 2%, respectively. Besides, the activity at 1 µM in experiment [1] (setting [4]) amounted to 54 ± 5%; in experiment [2] (setting [4]) it was 84 ± 6%. Besides, the “attenuation of synaptogenesis inhibited” value in experiment [2] is listed as “significantly attenuated”.
For the compound `CCN(CC)c1cc(NNC(=O)c2ccc(C(C)(C)C)cc2)nc(N(CC)CC)n1` [CSV0B008884], the activity at 0.01 µM in experiment [1] (setting [3]) was 41 ± 3%; in experiment [2] (setting [3]), 35 ± 3%. The figures for the activity at 1 µM in experiment [1] (setting [4]) and in experiment [2] (setting [4]) were 41 ± 4% and 37 ± 3%, respectively.
The matching figures for `COc1cc(/C=N/Nc2cc(N3CCCC3)nc(N3CCCC3)n2)ccc1O` [CSV0B016174]: 86 ± 3%, 43 ± 3%, 76 ± 4% and 36 ± 4%.
The matching figures for `Oc1ccccc1/C=N/Nc1cc(N2CCOCC2)nc(N2CCOCC2)n1` [CSV0B002764]: 66 ± 6%, 48 ± 5%, 67 ± 4% and 47 ± 3%.
The matching figures for `O=[N+]([O-])c1ccc(/C=N/Nc2cc(N3CCCCCC3)nc(N3CCCCCC3)n2)cc1` [CSV0A012753]: 77 ± 7%, 60 ± 1%, 75 ± 7% and 61 ± 4%.
For `CCN(CC)c1cc(N/N=C/c2ccc(O)c(OC)c2)nc(N(CC)CC)n1` [CSV0B009489], the activity at 0.01 µM came out at 39 ± 4% in experiment [1] (setting [3]) and 34 ± 3% in experiment [2] (setting [3]). Further, the activity at 1 µM amounted to 41 ± 3% in experiment [1] (setting [4]) and 36 ± 3% in experiment [2] (setting [4]).
Regarding `Oc1ccc(Cl)cc1/C=N/Nc1cc(N2CCCC2)nc(N2CCCC2)n1` [CSV0A041619], in experiment [1], the activity at 0.01 µM was 62 ± 2% and the activity at 1 µM worked out at 61 ± 2%. In addition, in experiment [2], the activity at 0.01 µM amounted to 54 ± 0.03% and the activity at 1 µM was 62 ± 2%.
Consider `CCN(CC)c1cc(N/N=C/c2ccccc2O)nc(N(CC)CC)n1` [CSV0B018834], for which the activity at 0.01 µM in experiment [1] (setting [3]) came to 39 ± 3%; in experiment [2] (setting [3]), 30 ± 3%. The activity at 1 µM in experiment [1] (setting [4]) worked out at 39 ± 2%; in experiment [2] (setting [4]) it was 31 ± 3%.
On to `COc1cc(/C=N/Nc2cc(N3CCOCC3)nc(N3CCOCC3)n2)ccc1O` [CSV0B002704], for which the activity at 0.01 µM in experiment [1] (setting [3]) came out at 79 ± 7%; in experiment [2] (setting [3]) it was 38 ± 2%. For the same compound, the activity at 1 µM in experiment [1] (setting [4]) was found to be 65 ± 3%; in experiment [2] (setting [4]) it was 29 ± 6%.
As for `O=[N+]([O-])c1cccc(/C=N/Nc2cc(N3CCOCC3)nc(N3CCOCC3)n2)c1` [CSV0A024807], the activity at 0.01 µM turned out to be 69 ± 3% in experiment [1] (setting [3]) and 92 ± 2% in experiment [2] (setting [3]). Further, the activity at 1 µM was determined as 60 ± 1% in experiment [1] (setting [4]) and 97 ± 2% in experiment [2] (setting [4]). For the same compound, the “rescue of neuronal damage caused by paclitaxel (immunofluorescence images)” value in experiment [1] (pretreated, primary cortical neuron culture, Figure 1B) is given as “significantly rescued”. Besides, the “protective effect in the neurite outgrowth assay (in words)” value in experiment [1] is reported as “significant protective effect”. The “attenuation of synaptogenesis inhibited” value in experiment [2] is “significantly attenuated”.
Turning to `CC(C)(C)c1ccc(C(=O)NNc2cc(N3CCCC3)nc(N3CCCC3)n2)cc1` [CSV0A062713], the activity at 0.01 µM in experiment [1] (setting [3]) amounted to 85 ± 8%; in experiment [2] (setting [3]), 33 ± 1%. For the same compound, the activity at 1 µM in experiment [1] (setting [4]) worked out at 74 ± 5%; in experiment [2] (setting [4]) it was 36 ± 2%.
The matching figures for `CCN(CC)c1cc(N/N=C/c2cccc(O)c2)nc(N(CC)CC)n1` [CSV0A007879]: 42 ± 5%, 38 ± 3%, 35 ± 4% and 26 ± 5%.
The matching figures for `CN(C)c1cc(NNC(=O)c2ccc(Cl)cc2)nc(N(C)C)n1` [CSV0A023089]: 47 ± 2%, 38 ± 3%, 50 ± 5% and 39 ± 6%.
The matching figures for `Clc1ccc(/C=N/Nc2cc(N3CCCC3)nc(N3CCCC3)n2)cc1` [CSV0A024814]: 81 ± 0.005%, 46 ± 1%, 67 ± 2% and 31 ± 1%.
For the compound `CN(C)c1cc(N/N=C/c2ccc(Cl)cc2Cl)nc(N(C)C)n1` [CSV0A047585], the activity at 0.01 µM turned out to be 57 ± 2% in experiment [1] (setting [3]) and 67 ± 2% in experiment [2] (setting [3]). For the same compound, the figures for the activity at 1 µM in experiment [1] (setting [4]) and in experiment [2] (setting [4]) were 57 ± 2% and 56 ± 0.2%, respectively.
With `CCCN(CCC)c1cc(N/N=C/c2ccccc2OC)nc(N(CCC)CCC)n1` [CSV0A011999], the results for the activity at 0.01 µM in experiment [1] (setting [3]) and in experiment [2] (setting [3]) were 45 ± 5% and 33 ± 4%, respectively. Further, the results for the activity at 1 µM in experiment [1] (setting [4]) and in experiment [2] (setting [4]) were 53 ± 3% and 37 ± 2%, respectively.
For `CN(C)c1cc(NNC(=O)CCc2ccccc2)nc(N(C)C)n1` [CSV0B008273], the activity at 0.01 µM in experiment [1] was 46 ± 3%; in experiment [2], 39 ± 2%. For the same compound, the activity at 1 µM was determined as 53 ± 2% in experiment [1] and 36 ± 2% in experiment [2].
On the same counts, the results for `O=C(CCc1ccccc1)NNc1cc(N2CCOCC2)nc(N2CCOCC2)n1` [CSV0C009114] are 70 ± 7%, 48 ± 5%, 65 ± 3% and 49 ± 3%.
For the compound `CCN(CC)c1cc(N/N=C/c2ccncc2)nc(N(CC)CC)n1` [CSV0A029945], the results for the activity at 0.01 µM in experiment [1] (setting [3]) and in experiment [2] (setting [3]) were 41 ± 8% and 35 ± 6%, respectively. Moreover, the activity at 1 µM in experiment [1] (setting [4]) came to 75 ± 8%; in experiment [2] (setting [4]) it was 50 ± 0.3%.
The matching figures for `CCCN(CCC)c1cc(N/N=C/c2cc(Br)ccc2O)nc(N(CCC)CCC)n1` [CSV0A020330]: 27 ± 2%, 22 ± 3%, 45 ± 3% and 45 ± 7%.

For the origin of these results see paper PMC8958505, “Discovery of Potential Neuroprotective Agents against Paclitaxel-Induced Peripheral Neuropathy” (Journal of Medicinal Chemistry, 2022).
